Here are results for 22 compounds from patent publication US20120142676A1, “Oxathiazine and dithiine oxides as inhibitors of sulfhydryl-dependent biomolecules” (priority 2010, published 2012).

The test system of data set [1] is human leukemia K562 cells. Description: K562 cell growth inhibition assay (MTS). The class given is cell-based. The conditions noted are these: 72 h incubation, read-out: Median growth inhibitory concentration (IC50) of K562 cells. The procedure: K562 cells were obtained from American Type Culture Collection (Rockville, Md.). These cells were maintained as suspension cultures in alpha minimum essential medium (αMEM) (Gibco BRL, Burlington, Canada) containing 2 mM L-glutamine and supplemented with 10% fetal calf serum (Invitrogen, Burlington, ON, Canada), 20 mM NaHCO3, 20 mM HEPES (Sigma), 100 units/ml penicillin G, and 100 μg/ml streptomycin at pH 7.4 in an atmosphere of 5% CO2 and 95% air at 37° C. For the measurement of growth inhibition, cells in exponential growth were harvested and seeded at 6000 cells/well in 96-well plates (100 μl/well). Drugs were dissolved in DMSO and added to the wells such that the final concentration of DMSO was 0.5% (v/v). After 72 h incubation, 7 μl of 3-(4,5-dimethylthiazol-2-yl)-5-(3-carboxymethoxyphenyl)-2-(4-sulfophenyl)-2H-tetrazolium (MTS) Cell Titer 96® AQueous One Solution (Promega, Md., WI) was added to each well and incubated for a further 3 h. The absorbance was measured in a Molecular Devices (Menlo Park, Calif.) plate reader. The spectrophotometric 96-well plate cell growth inhibition assay measures the ability of the cells to enzymatically reduce MTS. Three replicates were measured at each drug concentration, and the IC50 values and their SEs for growth inhibition were obtained by fitting the absorbance-drug concentration data to a four-parameter logistic equation.

Data set [2] has as its target T1, human topoisomerase IIα (Homo sapiens, UniProt P11388).
T1 construct: 300 ng K562 cells nuclear extract, the amount that gave 80% decatenation; endogenous in cells; host or cells: K562 cells nuclear extract
The experiment in a line: Topoisomerase IIα decatenation inhibition assay. The class given is biochemical. Conditions: K562 cells nuclear extract, kDNA decatenation; for inhibition at 3 µM / inhibition at 30 µM: read-out: % Inhibition of topoisomerase II catalytic activity. The procedure: The catalytic inhibition of human topoisomerase IIα by a drug was measured by the ATP-dependent decatenation of kDNA (Topogen, Columbus, Ohio) into minicircles of DNA as we previously described (Hasinoff 1995 QSAR ICRF-187). The 20 μl reaction mixture contained 0.5 mM ATP, 50 mM Tris-HCl (pH 8.0), 120 mM KCl, 10 mM MgCl2, 30 μg/ml bovine serum albumin, 40 ng kDNA, drug or DMSO (0.5 μl) and 300 ng K562 cells nuclear extract, the amount that gave 80% decatenation. The enzymatic reaction was carried out at 37° C. and was terminated by the addition of 6 μl of buffer containing 5 mM Tris pH 8.0, 30% w/v sucrose, 0.5% bromophenol blue, and 125 mM EDTA. The resulting mixture was separated by electrophoresis (2 h at 8 V/cm) on an agarose gel prepared from 1.2% w/v agarose and 0.5 μg/ml ethidium bromide in TAE buffer pH 8.0 (40 mM Tris base, 0.114% (v/v) glacial acetic acid, 2 mM EDTA). The DNA in the gel was imaged by its fluorescence on an Alpha Annotech Fluorchem 8900 imaging system equipped with a 365 nm illuminator and a CCD camera. Densitometry scanning of gel photographs was used to obtain the fluorescence intensity of the band corresponding to the DNA minicircles. The percentage inhibition of K562 topoisomerase II catalytic activity at concentrations of 3 and 30 μM was determined using the following equation: % Inhibition=[(1−(Bdrug−Bbackground)/Bdmso]×100, where Bdrug is the band intensity value for the enzymatic reaction sample treated with drug, Bbackground is the band intensity value for sample without the enzyme, and Bdmso is the band intensity value for the enzymatic reaction sample treated with DMSO solvent only.

Like-named read-outs stand apart in the source and are kept apart here.

T1 sequence (P11388 whole entry): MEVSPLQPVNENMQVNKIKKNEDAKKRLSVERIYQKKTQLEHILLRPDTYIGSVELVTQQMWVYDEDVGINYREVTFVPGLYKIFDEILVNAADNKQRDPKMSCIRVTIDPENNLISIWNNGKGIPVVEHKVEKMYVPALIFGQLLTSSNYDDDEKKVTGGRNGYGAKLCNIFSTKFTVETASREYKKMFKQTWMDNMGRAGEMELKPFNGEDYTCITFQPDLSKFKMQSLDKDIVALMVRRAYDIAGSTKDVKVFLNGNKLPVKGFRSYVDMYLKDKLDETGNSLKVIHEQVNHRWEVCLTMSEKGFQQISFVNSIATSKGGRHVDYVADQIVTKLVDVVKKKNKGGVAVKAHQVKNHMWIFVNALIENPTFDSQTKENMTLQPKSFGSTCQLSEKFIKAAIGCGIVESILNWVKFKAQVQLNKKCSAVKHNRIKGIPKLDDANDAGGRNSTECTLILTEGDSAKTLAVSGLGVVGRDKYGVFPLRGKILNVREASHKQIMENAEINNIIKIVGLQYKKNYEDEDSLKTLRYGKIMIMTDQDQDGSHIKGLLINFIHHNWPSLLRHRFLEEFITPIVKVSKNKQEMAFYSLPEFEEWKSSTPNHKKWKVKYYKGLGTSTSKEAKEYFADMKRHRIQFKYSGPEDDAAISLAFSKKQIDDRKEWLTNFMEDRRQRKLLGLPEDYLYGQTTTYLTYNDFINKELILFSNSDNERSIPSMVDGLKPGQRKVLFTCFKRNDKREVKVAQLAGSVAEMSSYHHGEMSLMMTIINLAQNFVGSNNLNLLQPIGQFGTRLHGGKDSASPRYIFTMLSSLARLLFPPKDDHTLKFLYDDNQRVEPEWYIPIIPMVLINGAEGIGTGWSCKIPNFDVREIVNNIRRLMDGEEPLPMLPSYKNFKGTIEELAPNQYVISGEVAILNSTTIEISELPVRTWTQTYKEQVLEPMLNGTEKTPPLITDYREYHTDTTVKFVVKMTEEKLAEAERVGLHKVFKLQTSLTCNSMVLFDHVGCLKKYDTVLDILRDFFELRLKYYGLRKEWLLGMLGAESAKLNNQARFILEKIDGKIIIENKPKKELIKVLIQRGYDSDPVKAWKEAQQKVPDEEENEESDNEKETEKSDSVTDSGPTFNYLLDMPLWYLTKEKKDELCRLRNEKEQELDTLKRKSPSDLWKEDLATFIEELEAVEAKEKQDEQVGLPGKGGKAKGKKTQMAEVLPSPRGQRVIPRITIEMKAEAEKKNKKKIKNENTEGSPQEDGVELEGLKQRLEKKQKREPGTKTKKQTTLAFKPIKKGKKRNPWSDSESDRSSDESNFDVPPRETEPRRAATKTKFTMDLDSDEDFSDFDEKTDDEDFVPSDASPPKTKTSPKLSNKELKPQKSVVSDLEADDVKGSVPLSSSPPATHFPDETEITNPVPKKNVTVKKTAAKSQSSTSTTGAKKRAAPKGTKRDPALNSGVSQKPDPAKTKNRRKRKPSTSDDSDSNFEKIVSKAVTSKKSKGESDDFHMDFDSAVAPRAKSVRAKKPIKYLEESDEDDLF

As to `CC1=C(CS(=O)(=O)c2ccccc2)S(=O)(=O)CCS1(=O)=O` [compound 22], the IC50 in data set [1] is 1000 nM. The “% Inhibition of topoisomerase II catalytic activity” value (“% Inhibition” for short) in data set [2] (3 μM) and in data set [2] (30 μM) was 100% in each case.
For `CCOC(=O)C1=C(C(F)(F)F)S(=O)(=O)CCS1(=O)=O` [compound 24, ethyl 1,1,4,4-tetraoxo-3-(trifluoromethyl)-5,6-dihydro-1λ^6,4λ^6-dithiine-2-carboxylate], the melting point lay in the range of 142 to 145 °C. In addition, the IC50 in data set [1] (Homo sapiens, K562, 72 h) was found to be 2500 nM. Besides, in data set [2] (3 μM), the inhibition at 3 µM worked out at 100%. For the same compound, in data set [2] (30 μM), the inhibition at 30 µM stood at 100%.
Regarding `O=S1(=O)CCON=C1c1cc2ccccc2s1` [compound 10], the IC50 in data set [1] was determined as 500 nM. Further, the “% Inhibition” value in data set [2] (3 μM) and in data set [2] (30 μM) was 100% in each case.
For the compound `CCOC(=O)c1ccc(C2=NOCC[S+]2[O-])s1` (stereo not shown) [compound 7], the IC50 in data set [1] was found to be 900 nM. Besides, the “% Inhibition” value in data set [2] (3 μM) and in data set [2] (30 μM) was 100% each time.
Turning to `O=S1(=O)CCON=C1C1=Cc2ccccc2S1(=O)=O` [compound 15], the IC50 in data set [1] is 500 nM. Also, the “% Inhibition” value in data set [2] (3 μM) and in data set [2] (30 μM) was 100% in each case.
As to `O=C(Nc1ccccc1)C1=C(C(F)(F)F)S(=O)(=O)CCS1(=O)=O` [compound 25, 1,1,4,4-tetraoxo-N-phenyl-3-(trifluoromethyl)-5,6-dihydro-1λ^6,4λ^6-dithiine-2-carboxamide], the melting point was 217 to 219 °C. In addition, the IC50 in data set [1] (Homo sapiens, K562, 72 h) was determined as 4000 nM. Besides, the inhibition at 3 µM in data set [2] (3 μM) was 100%. The inhibition at 30 µM in data set [2] (30 μM) came to 100%.
For the compound `CC1C(C)S(=O)(=O)C(c2ccccc2)=CS1(=O)=O` (stereo not shown) [compound 19], in data set [1], the IC50 came out at 4000 nM. Also, the “% Inhibition” value in data set [2] (3 μM) and in data set [2] (30 μM) was 100% each time.
Turning to `CCC1CS(=O)(=O)C(c2ccccc2)=C(c2ccccc2)S1(=O)=O` (stereo not shown) [compound 16], the IC50 in data set [1] worked out at 4000 nM. Besides, the “% Inhibition” value in data set [2] (3 μM) is listed as 80%; in data set [2] (30 μM), 100%.
In the case of `COCC1=C(COC)S(=O)(=O)CCS1(=O)=O` [compound 23], the IC50 in data set [1] stood at 2300 nM. Moreover, the “% Inhibition” value in data set [2] (3 μM) and in data set [2] (30 μM) was 100% each time.
Turning to `[O-][S+]1CCON=C1c1nnc(-c2cccc(Cl)c2)o1` (stereo not shown) [compound 8, 3-[5-(3-chlorophenyl)-1,3,4-oxadiazol-2-yl]-5,6-dihydro-1,4λ^4,2-oxathiazin-4-one], the melting point lay in the range of 208 to 210 °C. For the same compound, the IC50 in data set [1] (Homo sapiens, K562, 72 h) came out at 4000 nM. Also, the inhibition at 3 µM in data set [2] (3 μM) stood at 80%. Moreover, the inhibition at 30 µM in data set [2] (30 μM) worked out at 100%.
The matching figures for `CCOC(=O)C1=C(c2ccccc2)S(=O)(=O)CCS1(=O)=O` [compound 17, ethyl 1,1,4,4-tetraoxo-3-phenyl-5,6-dihydro-1λ^6,4λ^6-dithiine-2carboxylate]: 190 to 191 °C, 3000 nM, 100% and 100%.
The matching figures for `O=C(Nc1ccccc1)C1=NOCCS1(=O)=O` [compound 4, 4,4-dioxo-N-phenyl-5,6-dihydro-1, 4λ^6,2-oxathiazine-3-carboxamide]: 206 to 207 °C, 700 nM, 100% and 100%.
On the same counts, the results for `O=C(Nc1ccccc1)C1=NOCC[S+]1[O-]` (stereo not shown) [compound 3, 4-oxo-5,6-dihydro-N-phenyl-1,4λ^4,2-oxathiazine-3-carboxamide] are 150 to 154 °C, 1000 nM, 100% and 100%.
Consider `CCCCC1=C(c2ccccc2)S(=O)(=O)CCS1(=O)=O` [compound 18], for which the IC50 in data set [1] came to 5000 nM. Besides, the results for the “% Inhibition” value in data set [2] (3 μM) and in data set [2] (30 μM) were 70% and 100%, respectively.
The matching figures for `CC1C[S+]([O-])C(c2cc3ccccc3s2)=NO1` (stereo not shown) [compound 11]: 2000 nM, 100% and 100%.
Take `CCOC(=O)C1=C(C(=O)OCC)S(=O)(=O)CCS1(=O)=O` [compound 20, 2,3-diethyl 1,1,4,4-tetraoxo-5,6-dihydro-1λ^6,4λ^6-dithiine-2,3-dicarboxylate]: the melting point lay in the range of 154 to 156 °C. Besides, the IC50 in data set [1] amounted to 1000 nM. In addition, the inhibition at 30 µM in data set [2] (30 μM) was determined as 100%.
With `Cc1ccc2sc(C3=NOCC[S+]3[O-])c(C)c2c1` (stereo not shown) [compound 12], the IC50 in data set [1] came out at 700 nM. In addition, the “% Inhibition” value in data set [2] (3 μM) and in data set [2] (30 μM) was 100% each time.
As to `CC1=C(COc2ccccc2)S(=O)(=O)CCS1(=O)=O` [compound 21, 2-methyl-3-(phenoxymethyl)-5,6-dihydro-1λ^6,4λ^6-dithiine-1,1,4,4-tetrone], the IC50 in data set [1] (Homo sapiens, K562, 72 h) came out at 600 nM. Moreover, the inhibition at 3 µM in data set [2] (3 μM) amounted to 100%. The inhibition at 30 µM in data set [2] (30 μM) came to 100%.
In turn, `CCOC(=O)C1=C(C(=O)OCC)S(=O)(=O)CCS1(=O)=O` [compound 1] showed a melting point of 68 to 70 °C. Besides, in data set [1], the IC50 was 11000 nM. For the same compound, in data set [2] (3 μM), the “% Inhibition” value was 70%. In data set [2] (30 μM), the “% Inhibition” value is listed as 100%.
In the case of `[O-][S+]1CCON=C1c1cc2ccccc2[s+]1[O-]` (stereo not shown) [compound 14], the IC50 in data set [1] came out at 1000 nM. Further, the “% Inhibition” value in data set [2] (3 μM) and in data set [2] (30 μM) was 100% in each case.
As to `[O-][S+]1CCON=C1c1sc2ccccc2c1Br` (stereo not shown) [compound 13, 3-(3-bromo-1-benzothiophen-2-yl)-5,6-dihydro-1,4λ^4,2-oxathiazin-4-one], the IC50 in data set [1] (Homo sapiens, K562, 72 h) worked out at 1000 nM. Moreover, the inhibition at 3 µM in data set [2] (3 μM) was 100%. Moreover, in data set [2] (30 μM), the inhibition at 30 µM is 100%.
Consider `CC1=C(COc2ccccc2)S(=O)(=O)CCS1(=O)=O` [compound 2], for which the IC50 in data set [1] was 1000 nM. For the same compound, the “% Inhibition” value in data set [2] (3 μM) and in data set [2] (30 μM) was 100% throughout.
